Source: the supplement of paper PMC10307832

Key:
Experiment in all cases: relative viability (nuclei count vs DMSO), 5 days (fraction); higher = more cells survive
[1] = compound: C1=CC=C(C(=C1)C2=CC=C(C=C2)C3=CSC4=C3C(=C(C(=O)N4)C#N)O)O
Summary of the method: (§1)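 Vehicle-anchored 1536-well plates of lung cancer cell lines, held overnight at 37 °C, were pinned with five library-drug doses (not always all listed) spaced by √10. No medium change followed over the next 5 days, after which the cells were fixed, permeabilised and Hoechst-stained together and imaged at 4×. Nuclei were counted with MetaXpress, and viability is treated-well nuclei over vehicle-well nuclei, taken as a median across plates. Plates passed with control CV below 25% and at least one doubling.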

[2] = compound: CC1=CN2C(=O)C=C(N=C2C(=C1)C(C)NC3=CC=CC=C3)N4CCOCC4 [TGX 221]
Summary of the method: as §1

[3] = compound: O=C(CCCCCCNC(=O)c1cnc(N(c2ccccc2)c2ccccc2)nc1)NO [Ricolinostat]
Summary of the method: as §1

Cell Line: NCI-H1792
- relative viability ([1]; 0.253 µM): 1.01
- relative viability ([1]; 0.8 µM): 0.723
- relative viability ([1]; 2.53 µM): 0.921
- relative viability ([1]; 8 µM): 0.446
- relative viability ([2]; 0.08 µM): 0.749
- relative viability ([2]; 0.253 µM): 0.878
- relative viability ([2]; 0.8 µM): 1
- relative viability ([2]; 2.53 µM): 0.883
- relative viability ([2]; 8 µM): 0.864
- relative viability ([3]; 0.08 µM): 0.599
- relative viability ([3]; 0.253 µM): 0.938
- relative viability ([3]; 0.8 µM): 0.754
- relative viability ([3]; 2.53 µM): 0.57
